Measured values reported in patent publication US7939098B2, “Compositions and method for transmucosal drug delivery and cryoprotection” (Femina Pharma Incorporated, priority 2002, dated 2011).

Key:
[1] = system: porcine buccal mucosa; experiment: Transepithelial transport of [3H]water across porcine buccal mucosa in vitro, continuous flow apparatus; type: in vitro ADME
Experimental: (§1) Porcine buccal and nasal mucosa (lateral) was obtained at slaughter and utilized within 3 hours of harvest. Tissue samples approximately 8 mm in diameter were mounted between two halves of through-flow mucosal perfusion cells exposing an area of epithelial surface approximately 0.20 cm^2 for transepithelial transport. The chambers were mounted on water-jacketed blocks maintained at 37° C. During the set up period, the exposed epithelial surface was kept moist with phosphate buffered saline (PBS, 0.01M, pH 7.4). The buffer solution was removed by vacuum immediately prior to application of labeled test compound. […] In the receiver compartment, PBS was continuously pumped through the lower chamber (i.e., blood compartment) as a collection fluid at rate of 1.8 mL/hr, which was previously determined to be sufficient to maintain sink conditions in the receiver compartment. This fluid was collected into scintillation vials for 1 or 2 hour intervals over the entire collection period and radioactivity was determined by liquid scintillation counter. Transepithelial flux of the marker solute in the presence of various concentrations of permeation enhancers was calculated at each sampling interval from the relationship: Flux=Q/At where Q is the finite quantity of solute traversing the tissue barrier (dpm) in time t (min); A is the area of epithelial surface exposed in cm^2. […]

[2] = system: porcine nasal mucosa; experiment: Transepithelial transport of [3H]water across porcine nasal mucosa in vitro, continuous flow apparatus; type: in vitro ADME
Experimental: as §1

[3] = system: healthy female rabbits; conditions: rabbit, in vivo
Experimental: A 10 day, repeat dose, vaginal toxicity study was conducted in healthy female rabbits. Three doses and two controls were used. […] Doses of SUPPOCIRE® and SUPPOCIRE® plus ethoxydiglycol were used as controls. The study findings are summarized below.

[4] = essentially the same amount as i.v.; cited from earlier work

SMILES	increase of mean steady state Kp as compared to control ([1]; 30% (v/v) TRANSCUTOL versus control)	mean steady state Kp of [3H]water ([1]; in the presence of 30% (v/v) TRANSCUTOL, n=7)	increase of mean steady state Kp compared to control PBS ([2]; 15% (v/v) TRANSCUTOL versus control PBS)	mean steady state Kp of [3H]water ([2]; in the presence of 15% (v/v) TRANSCUTOL, n=7)	NOEL ([3]; female, 10 days)	NOEL, equivalent human dose ([3]; female, 10 days)	finding on cervix or uterus [3]	one-time human dose extrapolated to be safe [3]	systemic side effects [3]	systemic level after oral administration compared to i.v. administration [4]
CCOCCOCCO [TRANSCUTOL®, diethyleneglycol monoethyl ether]	~25%	1.11±0.01×10^−3 cm/min	~37%	1.83±0.02×10^−3 cm/min						
NCCCC(O)(P(=O)(O)O)P(=O)(O)O [alendronate]					0.013 mg/3 kg rabbit dose	0.3 mg	No erythema, inflammation or erosion	10 mg	no systemic side effects	below 1%
